This is an account of results in patent US7652053B2, “Diaminocycloalkane MCH receptor antagonists” (Hoffmann-La Roche Inc., priority 2006, dated 2010).

For this assay, the target named is T1, recombinant human MCHR1 receptors (Homo sapiens, UniProt Q99705).
T1 construct: expressed in transfected cells
The assay can be described thus: MCHR Filter Binding Assay (competition binding with [Phe13[125I]Tyr19]-MCH). The procedure: Competition binding assay was conducted in MultiScreen […] glass fiber type B filter plates (96-well, Millipore). The MultiScreen plates were pretreated by incubation with 0.5% polyvinylpyrrolidone solution containing 1% BSA and 0.1% tween-20 for 12 hours at 4° C. and washed five times with ice-cold 10 mM Tris buffer, pH 7.5, followed by incubation with 200 µL of binding buffer (50 mM HEPES, 2.5 mM CaCl2, 0.05 mM BSA, 1 mM phenanthroline, 0.03 mM Triton X-100) for 5 min at room temperature and plates were drained before the binding reactions. The binding assay was performed by pre-incubating 2.8 µg of membranes from CHO-K1 cells stably expressing the recombinant human MCHR1 receptors, and various concentrations (final concentration 0.059 nM to 45 µM) of unlabeled MCH or antagonists in binding buffer for 15 min at room temperature. The competition reaction was started by adding final concentration (0.2 nM) [Phe^13[^125I]Tyr^19]-MCH (PerkinElmer). The final volume of the reaction was 90 µL per well. After 60 min incubation time at room temperature the reaction was stopped by rapid filtration over 96-well filter plates. Following termination of the binding reactions, the filters were washed with ice-cold binding buffer (4×200 µL), and were air dried for 30 min. Scintillation cocktail (60 µL) was added to each well and radioactivity bound to the plates was determined using a Micro-beta plate reader (Wallace/PerkinElmer). The inhibition potency of antagonist was expressed as IC50, the concentration of compound at which the binding of radio labeled MCH to MCHR1 was inhibited by 50%.

[1] abbreviates: inhibition of binding of MCH to MCHR.
The mark [2] stands for this setting: inhibition of binding of MCH to MCHR, read-out: MCHR IC50.
Setting [3] is: membranes from CHO-K1 cells stably expressing human MCHR1, 0.2 nM radiolabeled MCH, read-out: Activity in MCHR binding assays (IC50 class).

SMILES strings stand for the structures. Counter-ions that a name gives are not always drawn. Like-named read-outs stand apart in the source and are kept apart here.

T1 sequence (Q99705 whole entry): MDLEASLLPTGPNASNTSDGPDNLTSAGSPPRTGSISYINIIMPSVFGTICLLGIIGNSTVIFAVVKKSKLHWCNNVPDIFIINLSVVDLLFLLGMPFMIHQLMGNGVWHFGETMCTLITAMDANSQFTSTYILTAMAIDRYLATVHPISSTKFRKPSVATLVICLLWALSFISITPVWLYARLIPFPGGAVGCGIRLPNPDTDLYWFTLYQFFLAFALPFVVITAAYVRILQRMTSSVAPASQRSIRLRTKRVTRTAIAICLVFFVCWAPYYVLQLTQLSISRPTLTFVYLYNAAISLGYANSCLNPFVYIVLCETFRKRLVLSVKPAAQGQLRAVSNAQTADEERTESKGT

The term Ki denotes the equilibrium dissociation constant of an inhibitor or competing ligand from its target. As usually defined, the IC50 is the concentration that inhibits the measured activity by half. In the case of `CC(C)(O)c1nc2cc(Cl)ccc2n1[C@H]1CC[C@@H](NC[C@H]2Cc3ccc(Br)cc3C2)CC1` [Example 7, cis-(S)-2-(1-{4-[(5-Bromo-indan-2-ylmethyl)-amino]-cyclohexyl}-5-chloro-1H-benzoimidazol-2-yl)-propan-2-ol], the Ki under setting [1] is 19 nM. Further, the IC50 reads like this: under setting [2], 24 nM; under setting [3], 10 to 100 nM. As to `Cc1ccc2c(c1)nc(C)n2[C@@H]1CC[C@@H](NC[C@H]2Cc3ccc(Br)cc3C2)C1` [Example 2, trans-(S)-(5-Bomo-indan-2-ylmethyl)-[3-(2,5-dimethyl-benzoimidazol-1-yl)-cyclopentyl]-amine], the IC50 under setting [3] was 100 to 1000 nM. The same measure, in the same setting: to `Cc1nc2cc(C#N)ccc2n1[C@H]1CC[C@@H](NCC2Cc3ccc(Cl)cc3C2)CC1` (stereo partly drawn) [Example 25, cis-1-{4-[(5-Chloro-indan-2-ylmethyl)-amino]-cyclohexyl}-2-methyl-1H-benzoimidazole-5-carbonitrile] belongs 10 to 100 nM; to `Cc1ccc2c(c1)nc(C(C)(C)O)n2[C@H]1CC[C@H](NC[C@H]2Cc3ccc(C#N)cc3C2)CC1` [Example 17, trans-(S)-2-({4-[2-(1-Hydroxy-1-methyl-ethyl)-5-methyl-benzoimidazol-1-yl]-cyclohexylamino}-methyl)-indan-5-carbonitrile], 100 to 1000 nM. On to `Cc1nc2cc(F)ccc2n1[C@H]1CC[C@@H](NC[C@H]2Cc3ccc(C#N)cc3C2)CC1` [Example 26, cis-(S)-2-{[4-(5-Fluoro-2-methyl-benzoimidazol-1-yl)-cyclohexylamino]-methyl}-indan-5-carbonitrile], for which, under setting [1], the Ki was found to be 2 nM. Further, the IC50 is, setting by setting: under setting [2], 3 nM; under setting [3], under 10 nM.

For the compound `Cc1ccc2c(c1)nc(C)n2[C@H]1CC[C@@H](NC2Cc3ccc(Cl)cc3C2)CC1` (stereo partly drawn) [Example 6, cis-(5-Chloro-indan-2-yl)-[4-(2,5-dimethyl-benzoimidazol-1-yl)-cyclohexyl]-amine; hydrochloride], the IC50 under setting [3] lay within 10 to 100 nM. For the compound `CC(=O)N(C[C@H]1Cc2ccc(C#N)cc2C1)[C@H]1CC[C@@H](n2c(C(C)(C)O)nc3cc(Cl)ccc32)CC1` [Example 23, cis-(S)—N-{4-[5-Chloro-2-(1-hydroxy-1-methyl-ethyl)-benzoimidazol-1-yl]-cyclohexyl}-N-(5-cyano-indan-2-ylmethyl)-acetamide], the Ki under setting [1] stood at 154 nM. In addition, the IC50 reads like this: under setting [2], 193 nM; under setting [3], 100 to 1000 nM. For the compound `Cc1ccc2c(c1)nc(C(C)(C)O)n2[C@H]1CC[C@@H](NCC2Cc3ccc(F)cc3C2)CC1` (stereo partly drawn) [Example 18, cis-2-(1-{4-[(5-Fluoro-indan-2-ylmethyl)-amino]-cyclohexyl}-5-methyl-1H-benzoimidazol-2-yl)-propan-2-ol], under setting [3], the IC50 was in the range of 10 to 100 nM.

In the case of `Cc1ccc2c(c1)nc(C(C)(C)O)n2[C@H]1CC[C@@H](NCC2Cc3ccc(Cl)cc3C2)CC1` (stereo partly drawn) [Example 20, cis-2-(1-{4-[(5-Chloro-indan-2-ylmethyl)-amino]-cyclohexyl}-5-methyl-1H-benzoimidazol-2-yl)-propan-2-ol], the inhibition constant (Ki) under setting [1] turned out to be 21 nM. In addition, the IC50 is 26 nM under setting [2] and 10 to 100 nM under setting [3]. As for `Cc1ccc2c(c1)nc(C)n2[C@H]1CC[C@@H](NC[C@H]2Cc3ccc(Br)cc3C2)CC1` [Example 4, cis-(S)-(5-Bromo-indan-2-ylmethyl)-[4-(2,5-dimethyl-benzoimidazole-1-yl)-cyclohexyl]-amine hydrochloride], under setting [3], the IC50 was 10 to 100 nM. Same read-out and setting: to `Cc1ccc2c(c1)nc(C)n2[C@H]1CC[C@@H](NCC2Cc3ccccc3C2)CC1` [Example 13, cis-[4-(2,5-Dimethyl-benzoimidazol-1-yl)-cyclohexyl]-indan-2-ylmethyl-amine] belongs 100 to 1000 nM. On the same count and under the same terms, to `Cc1ccc2c(c1)nc(C)n2[C@H]1CC[C@@H](NC2Cc3ccccc3C2)CC1` [Example 1, cis-4-(2,5-Dimethyl-benzoimidazol-1-yl)-cyclohexyl]-indan-2-yl-amine; hydrochloride] belongs 100 to 1000 nM; to `Cc1ccc2c(c1)nc(C)n2[C@@H]1CC[C@@H](NCC2Cc3ccc(Cl)cc3C2)C1` (relative stereo) [Example 3, trans-(5-Chloro-indan-2-ylmethyl)-[3-(2,5-dimethyl-benzoimidazol-1-yl)-cyclopentyl]-amine], 100 to 1000 nM; to `Cc1ccc2c(c1)nc(C(C)(C)O)n2[C@H]1CC[C@@H](NC[C@H]2Cc3ccc(C#N)cc3C2)CC1` [Example 16, cis-(S)-2-({4-[2-(1-Hydroxy-1-methyl-ethyl)-5-methyl-benzoimidazol-1-yl]-cyclohexylamino}-methyl)-indan-5-carbonitrile], under 10 nM. On to `Cc1ccc2c(c1)nc(C)n2[C@@H]1CC[C@H](NC[C@H]2Cc3ccc(Br)cc3C2)C1` [Example 5, cis-(S)-(5-Bromo-indan-2-ylmethyl)-[3-(2,5-dimethyl-benzoimidazol-1-yl)-cyclopentyl]-amine], for which, under setting [3], the IC50 fell in the range of 100 to 1000 nM. On the same count and under the same terms, to `CC(C)(O)c1nc2cc(Cl)ccc2n1[C@H]1CC[C@@H](NCC2Cc3ccc(Cl)cc3C2)CC1` (stereo partly drawn) [Example 10, cis-2-(5-Chloro-1-{4-[(5-chloro-indan-2-ylmethyl)-amino]-cyclohexyl}-1H-benzoimidazol-2-yl)-propan-2-ol] belongs 10 to 100 nM; to `CC(C)(O)c1nc2cc(Cl)ccc2n1[C@H]1CC[C@@H](NCC2Cc3ccccc3C2)CC1` [Example 9, cis-2-(5-Chloro-1-{4-[(indan-2-ylmethyl)-amino]-cyclohexyl}-1H-benzoimidazol-2-yl)-propan-2-ol], 10 to 100 nM. In the case of `CC(C)(O)c1nc2cc(Cl)ccc2n1[C@H]1CC[C@@H](NC[C@H]2Cc3ccc(C#N)cc3C2)CC1` [Example 14, cis-(S)-2-({4-[5-Chloro-2-(1-hydroxy-1-methyl-ethyl)-benzoimidazol-1-yl]-cyclohexylamino}-methyl)-indan-5-carbonitrile], the Ki under setting [1] came to 1.8 nM. The IC50 is 2.2 nM under setting [2] and under 10 nM under setting [3]. In the case of `Cc1ccc2c(c1)nc(C)n2[C@H]1CC[C@@H](NCC2Cc3ccc(Cl)cc3C2)CC1` (stereo partly drawn) [Example 11, cis-(5-Chloro-indan-2-ylmethyl)-[4-(2,5-dimethyl-benzoimidazol-1-yl)-cyclohexyl]-amine], the IC50 under setting [3] is 10 to 100 nM. Turning to `Cc1ccc2c(c1)nc(C)n2[C@H]1CC[C@@H](NC[C@H]2Cc3ccc(C#N)cc3C2)CC1` [Example 15, cis-(S)-2-{[4-(2,5-Dimethyl-benzoimidazol-1-yl)-cyclohexylamino]-methyl}-indan-5-carbonitrile], the IC50 under setting [3] lay in the range of 10 to 100 nM. Still for that read-out and setting: then `CC(C)(O)c1nc2cc(Cl)ccc2n1[C@H]1CC[C@@H](NC[C@@H]2Cc3ccc(C#N)cc3C2)CC1` [Example 22, cis-(R)-2-({4-[5-Chloro-2-(1-hydroxy-1-methyl-ethyl)-benzoimidazol-1H-yl]-cyclohexylamino}-methyl)-indan-5-carbonitrile], with under 10 nM; and `Cc1ccc2c(c1)nc(C(C)(C)O)n2[C@H]1CC[C@H](NCC2Cc3ccc(F)cc3C2)CC1` (stereo partly drawn) [Example 19, trans-2-(1-{4-[(5-Fluoro-indan-2-ylmethyl)-amino]-cyclohexyl}-5-methyl-1H-benzoimidazol-2-yl)-propan-2-ol], with 100 to 1000 nM. The same measure, in the same setting: to `Cc1ccc2c(c1)nc(C(C)(C)O)n2[C@H]1CC[C@H](NCC2Cc3ccc(Cl)cc3C2)CC1` (stereo partly drawn) [Example 21, trans-2-(1-{4-[(5-Chloro-indan-2-ylmethyl)-amino]-cyclohexyl}-5-methyl-1H-benzoimidazol-2-yl)-propan-2-ol] belongs 100 to 1000 nM; to `CC(C)(O)c1nc2cc(Cl)ccc2n1[C@H]1CC[C@@H](NCC2Cc3ccc(C(F)(F)F)cc3C2)CC1` (relative stereo) [Example 8, cis-2-(5-Chloro-1-{4-[(5-trifluoromethyl-indan-2-ylmethyl)-amino]-cyclohexyl}-1H-benzoimidazol-2-yl)-propan-2-ol], 100 to 1000 nM. On the same count and under the same terms, to `CC(C)(O)c1nc2cc(Cl)ccc2n1[C@H]1CC[C@@H](NC[C@@H]2Cc3ccc(Br)cc3C2)CC1` [Example 24, cis-(R)-2-(1-{4-[(5-Bromo-indan-2-ylmethyl)-amino]-cyclohexyl}-5-chloro-1H-benzoimidazol-2-yl)-propan-2-ol] belongs 10 to 100 nM.

As to `Cc1ccc2c(c1)nc(C)n2[C@H]1CC[C@@H](NCC2Cc3ccc(C(F)(F)F)cc3C2)CC1` (stereo partly drawn) [Example 12, cis-[4-(2,5-Dimethyl-benzoimidazol-1-yl)-cyclohexyl]-(5-trifluoromethyl-indan-2-ylmethyl)-amine], the IC50 under setting [3] is 100 to 1000 nM.
